In PMC11718441, “Bis-3-chloropiperidines: a novel motif for anthelmintic drug design” (RSC Advances, 2025):
Entries after “also recorded” stand apart in the source; their conditions may differ. Where two headings read alike, the source gives them in different places.

Legend:
Schistosoma mansoni = assay: In vitro tests against Schistosoma mansoni (vitality parameters of adult worm pairs); assay type: cell-based; settings: for activity against S. mansoni (100% effect strength in one parameter within 7 days = active): 10 or 20 μM
Description: Subsequently, we tested whether compounds with nematocidal activity display a broader activity also against parasitic flatworms. To this end, in vitro tests against the blood fluke S. mansoni were conducted (Fig. 4). The worms were incubated in presence of 10 and 20 μM of compounds 1–22 and phenotypic vitality parameters (separation of worm pairs, detachment of suckers from the bottom of the well and weakening of body movements) were assessed as previously described.[31] Compounds reaching 100% effect strength in one of the parameters within 7 days were considered active. Reduction of motility is considered most relevant for antischistosomal drug candidates.[32] In addition, loss of sucker activity would make parasites drifting off from their host habitat (mesenteric veins) and with pair separation, the production of pathology-causing eggs eventually ceases.[33] […] For some molecular targets e.g. glutamate and GABA chloride channels (ivermecin, abamectin) and β-tubulin (albendazole, mebendazole) the C. elegans assays results were transferable to Schistosoma, while for others e.g. acetylcholin mimetic (levamisole) the C. elegans MMIC was not predicative (Fig. S1 ^†).
2.2 Parasitological studies
Animal experiments were performed in accordance with Directive 2010/63/EU on the protection of animals used for scientific purposes and the German Animal Welfare Act. The experiments were approved by the Regional Council (Regierungspraesidium) Giessen (V54 – […]
A Liberian strain of S. mansoni was maintained in the freshwater snail Biomphalaria glabrata as intermediate host and Syrian hamsters (Mesocricetus auratus) as final host (Janvier Labs, France).5,6 Hamsters were infected at 8 weeks of age with 1,750 cercariae by using the paddling method.7 Adult worms were collected at 46 days p.i. by hepatoportal perfusion and cultured in M199 medium (Sigma-Aldrich, Germany) supplemented with 10% Newborn Calf Serum (NCS, Sigma-Aldrich), 1% 1 M HEPES (ThermoFisher Scientific, USA) and 1% ABAM solution (10,000 units/ml penicillin, 10 mg/ml streptomycin and […] amphotericin B; Sigma-Aldrich, Germany) at 37 °C, 5% CO2 and humidified atmosphere.
2.2.3. In vitro tests against Schistosoma mansoni
Test compounds were added at 10 µM or 20 µM in supplemented M199 medium to schistosomes (5 worm pairs per replicate) followed by a 7 d in vitro culture. Worms receiving the solvent DMSO at equal dilution served as negative control. The following vitality parameters were assessed every 24 h by bright field microscopy using a Leica DM IL inverted microscope and x2.5 objective lens: separation of worm pairs into male and female worms; detachment of suckers from the bottom; and weakening of body movements. Worm motility was scored as described previously, 8 with the scores 3 (normal motility), 2 (reduced motility), 1 (minimal and sporadic movements), 0 (no movements within 20 sec; dead worms). An average score of all worms per well was calculated to obtain a motility score. An average motility score of 0, separation of all pairs or detachment of all worms per well was considered

MDCK II cells = assay: In vitro cytotoxicity, CellTiter-Glo, MDCK II cells; settings: 100 μM; for MDCKII cytotoxicity: 48 h, cell viability less than 80% relative to DMSO control = cytotoxic
C. elegans N2 = assay: whole plant or invertebrate; assay type: cell-based, Caenorhabditis elegans; settings: Caenorhabditis elegans, 48 h, read-out: MMIC N2
Text: (§1) The cuticle of C. elegans strain DC19 is known to be more permeable for small molecules compared to the wildtype N2.[30] DC19 is thereby considered an informative drug-sensitive test organism. In our assays, we determined the minimum mobility inhibitory concentration (MMIC) as a proxy for anthelmintic activity. […] In contrast, MMICs of some small molecule anthelmintics such as albendazole, mebendazole or PF-1022A were lower for DC19 (Fig. S1 ^†). […]
(§2) 2.2 In vitro tests against Caenorhabditis Elegans
(§3) The minimal motility inhibitory concentration (MMIC) of compounds 1-22 against C. elegans was determined as described before.3 Both strains, C. elegans N2 and DC19 were treated identically. Briefly, pre-cultures of C.elegans were kept on NGM agar plates infused with auxotrophic E.coli OP50 as food source.4 After 4 days the plates contained sufficient gravid worms, respectively. Worms were washed from the plates with M9 buffer using wide bore pipette tips. Egg preparation was carried out by treating the harvested worms with an alkaline hypochlorite solution (5 M NaOH + 5 % NaOCl 1:2) in polypropylene tubes. Larvae and adult […]
(§4) We carried out 3 washing steps (M9 buffer) to remove carry-over hypochlorite solution. Subsequently, the eggs were incubated overnight in NGM broth on a rotator to yield synchronized hatched L1/L2 larvae. The larvae solution was adjusted to 100 worms/mL and supplemented with cholesterol (5 µg/mL), carbenicillin (25 µg/mL) and E.coli OP50 (0.5%). This assay solution was distributed into 96 well plates and incubated with a dilution series of compounds 1-22 (64-0.5 µg/mL). An additional eight-point dilution series of ivermecin (40 – 0.3 ng/mL) was used as positive control on each assay plate. Solvent background was controlled by supplementation of pure DMSO without any compound. Assays were incubated for 2 days at room temperature. Finally, a cell imaging multimode reader (Cytation™ 5) was used to record short videos (1.5 seconds) of each individual test well. The videos were used to evaluate the worm motility.

[1] = system: Septoria tritici MUCL45408; assay: Minimum inhibitory concentration (MIC), S. tritici (ATP quantification); assay type: cell-based; settings: Zymoseptoria tritici, read-out: MIC St
Description: (§5) The minimum inhibitory concentration (MIC) of the synthesized compounds was initially determined against three microbial indicator strains (Escherichia coli ATCC35218, […] ATCC33592, Septoria tritici MUCL45408). […]
(§6) 2. Microbial and parasitological studies
(§7) The minimum inhibitory concentration (MIC) of the synthesized compounds was determined against three microbial indicator strains (E. coli ATCC35218, S. aureus ATCC33592 and S. tritici MUCL45408) as previously described.1,2 All samples were dissolved in DMSO and tested in triplicate. Briefly, a pre-culture of E. coli and S. aureus was prepared by incubating the strains in cation adjusted Mueller Hinton 2 broth (Becton Dickinson, Sparks, NV, USA) at 37°C and 180 rpm overnight. The cell density of adjusted to 5 × 10^5 cells/mL before assays were incubated at 37 °C, 180 rpm and 85% rH. Three distinct dilution series of standard antibiotics (gentamicin, rifampicin, and tetracycline) were used as positive controls on each assay plate. Inoculated medium without test compound or positive control was used as negative control.
Medium background was averaged from 5 replicates. The turbidity of each well was measured with a microplate spectrophotometer at 600 nm (LUMIstar® Omega, BMG Labtech) and growth inhibition was calculated relative to the absorption of the controls. For S. tritici MUCL45408 inoculated at a density of 1 × 10^5 cells/mL in potato […]
dextrose medium. Septoria assay plates were incubated for 4 days at 25 °C, 180 rpm and 85% rH. Tebuconazole, amphotericin B, and nystatin were used as positive controls. Cell viability was evaluated via ATP quantification (BacTiter-Glo™, Promega GmbH, Walldorf, Germany) according to the manufacturer’s instructions. […]

[2] = system: C. elegans strains N2 and DC19; assay: MMIC against C. elegans, strains N2 and DC19 reported together or strain not stated; assay type: cell-based; settings: Caenorhabditis elegans, 48 h
Text: as §1, §2, §3, §4

S. aureus ATCC33592 = assay: microbe, parasite or virus in culture; assay type: cell-based; settings: Staphylococcus aureus, ATCC33592, read-out: MIC Sa
Description: as §5, §6
as §7, with “and tetracycline) were used as positive controls on each assay plate. Inoculated medium without test compound or positive control was used as negative control.” left out
(§8) medium without test compound or positive control was used as negative control.
(§9) Medium background was averaged from 5 replicates. The turbidity of each well was […]

[3] = system: Escherichia coli ATCC35218; assay: microbe, parasite or virus in culture; assay type: cell-based; settings: ATCC35218, read-out: MIC Ec
Description: as §5, §6
as §7, with “and tetracycline) were used as positive controls on each assay plate. Inoculated medium without test compound or positive control was used as negative control.” left out
as §8, §9

C. elegans DC19 = assay: whole plant or invertebrate; assay type: cell-based, Caenorhabditis elegans; settings: Caenorhabditis elegans, 48 h, read-out: MMIC DC19
Text: as §1, §2, §3, §4

in vitro = settings: dog
[4] = C. elegans, read-out: MMIC N2 and DC19
[5] = 96 h, S. tritici MUCL45408, 4 days

SMILES	activity against S. mansoni (100% effect strength in one parameter within 7 days = active) (Schistosoma mansoni)	MDCKII cytotoxicity (MDCK II cells)	minimal effective concentration (C. elegans N2) [µg/mL]	MIC ([1]; MUCL45408, 96 h) [µg/mL]	minimal effective concentration [2, 4] [µg/mL]	MIC (S. aureus ATCC33592) [µg/mL]	MIC [3] [µg/mL]	minimal effective concentration (C. elegans DC19; C. elegans DC19, 2 days) [µg/mL]	MIC [1, 5] [µg/mL]	minimal effective concentration (C. elegans N2; C. elegans N2, 2 days) [µg/mL]	also measured
CN(C)c1cc(CN2CC(Cl)CC(C)(C)C2)cc(CN2CC(Cl)CC(C)(C)C2)c1 (stereo not shown) [Compound 3]	showed an effect on S. mansoni	+ (“+” (toxic))	16	> 64	< 20	> 64	> 64				lethal effects (Schistosoma mansoni; 20 μM, after seven days): lethal effects; sucker detachment (Schistosoma mansoni; 20 μM, after three days): sucker detachment already after three days; cytotoxicity against MDCK II (in words) (MDCK II cells): cytotoxic
Cc1cc(CN2CC(Cl)CC(C)(C)C2)cc(CN2CC(Cl)CC(C)(C)C2)c1 (stereo not shown) [Compound 7]	showed an effect on S. mansoni				< 20	> 64	> 64	16	> 64		
CC1(C)CC(Cl)CN(Cc2ccccc2CN2CC(Cl)CC(C)(C)C2)C1 (stereo not shown) [Compound 8]					< 20	> 64	> 64			8	phenotypic changes / vitality parameters of Schistosoma (Schistosoma mansoni; up to 20 μM, in comparison to the untreated control): did not inflict any phenotypic changes
CC1(C)CC(Cl)CN([C@H]2CC[C@H](N3CC(Cl)CC(C)(C)C3)CC2)C1 (stereo partly shown) [Compound 10]					≥ 64	> 64	> 64	> 64	> 64	> 64	
COC(=O)[C@H](CCCCN1CC(Cl)CC(C)(C)C1)N1CC(Cl)CC(C)(C)C1 (stereo partly shown) [Compound 11]	Schistosoma-specific; also recorded: active at 20 μM	− (“−” (not toxic))	> 64	> 64		> 64	> 64				detachment of suckers and pair separation (Schistosoma mansoni; 20 μM, after 7 days incubation): detachment of suckers and pair separation; Effect on S. mansoni (Schistosoma mansoni; 10 and 20 μM, up to 7 days, Det: detachment of suckers, Mot: motility reduction, Sep: pair separation): Det, Sep; minimal effective concentration (C. elegans DC19): > 64 µg/mL; CC50 (in vitro): 123 µM
CC1(C)CC(Cl)CN(CCCC[C@@H](C(=O)OCCc2ccccc2)N2CC(Cl)CC(C)(C)C2)C1 (stereo partly shown) [Compound 12]	showed an effect on S. mansoni				< 20	> 64	> 64	16	> 64		sucker detachment of Schistosoma worm pairs (Schistosoma mansoni; 10 μM): full sucker detachment; motility score (Schistosoma mansoni; score 3 normal motility to 0 dead, paragraph on 20 μM): 1–1.2
CC1(C)CC(Cl)CN(CCN2CC(Cl)CC(C)(C)C2)C1 (stereo not shown) [Compound 15]		+ (“+” (toxic))	> 64	> 64		> 64	> 64				minimal effective concentration (C. elegans DC19): > 64 µg/mL; minimal effective concentration ([2]; read-out: MMIC N2 and DC19, C. elegans): ≥ 64 µg/mL
CCCCN1CC(Cl)CC2(CC2)C1 (stereo not shown) [Compound 17]		− (“−” (not toxic))				> 64	> 64	> 64	> 64	> 64	
CC1(C)CC(Cl)CN(Cc2ccccc2)C1 (stereo not shown) [Compound 18]		+ (“+” (toxic))	> 64	> 64		> 64	> 64				minimal effective concentration (C. elegans DC19): 32 µg/mL
Cl[C@H]1CCCN(Cc2ccccc2)C1 [Compound 19]		− (“−” (not toxic))				> 64	> 64	> 64	> 64	> 64	
Cl[C@@H]1CCCN(Cc2ccccc2)C1 [Compound 20]		− (“−” (not toxic))				> 64	> 64	> 64	> 64	> 64	
COc1cc(CN2CC(O)CC(C)(C)C2)cc(CN2CC(O)CC(C)(C)C2)c1 (stereo not shown) [Compound 22]		− (“−” (not toxic))				> 64	> 64	> 64	> 64	> 64	
